Biological target: T1, RePC (Rhizobium etli pyruvate carboxylase) (Rhizobium etli, UniProt Q2K340)
T1 sequence (Q2K340 1-1154): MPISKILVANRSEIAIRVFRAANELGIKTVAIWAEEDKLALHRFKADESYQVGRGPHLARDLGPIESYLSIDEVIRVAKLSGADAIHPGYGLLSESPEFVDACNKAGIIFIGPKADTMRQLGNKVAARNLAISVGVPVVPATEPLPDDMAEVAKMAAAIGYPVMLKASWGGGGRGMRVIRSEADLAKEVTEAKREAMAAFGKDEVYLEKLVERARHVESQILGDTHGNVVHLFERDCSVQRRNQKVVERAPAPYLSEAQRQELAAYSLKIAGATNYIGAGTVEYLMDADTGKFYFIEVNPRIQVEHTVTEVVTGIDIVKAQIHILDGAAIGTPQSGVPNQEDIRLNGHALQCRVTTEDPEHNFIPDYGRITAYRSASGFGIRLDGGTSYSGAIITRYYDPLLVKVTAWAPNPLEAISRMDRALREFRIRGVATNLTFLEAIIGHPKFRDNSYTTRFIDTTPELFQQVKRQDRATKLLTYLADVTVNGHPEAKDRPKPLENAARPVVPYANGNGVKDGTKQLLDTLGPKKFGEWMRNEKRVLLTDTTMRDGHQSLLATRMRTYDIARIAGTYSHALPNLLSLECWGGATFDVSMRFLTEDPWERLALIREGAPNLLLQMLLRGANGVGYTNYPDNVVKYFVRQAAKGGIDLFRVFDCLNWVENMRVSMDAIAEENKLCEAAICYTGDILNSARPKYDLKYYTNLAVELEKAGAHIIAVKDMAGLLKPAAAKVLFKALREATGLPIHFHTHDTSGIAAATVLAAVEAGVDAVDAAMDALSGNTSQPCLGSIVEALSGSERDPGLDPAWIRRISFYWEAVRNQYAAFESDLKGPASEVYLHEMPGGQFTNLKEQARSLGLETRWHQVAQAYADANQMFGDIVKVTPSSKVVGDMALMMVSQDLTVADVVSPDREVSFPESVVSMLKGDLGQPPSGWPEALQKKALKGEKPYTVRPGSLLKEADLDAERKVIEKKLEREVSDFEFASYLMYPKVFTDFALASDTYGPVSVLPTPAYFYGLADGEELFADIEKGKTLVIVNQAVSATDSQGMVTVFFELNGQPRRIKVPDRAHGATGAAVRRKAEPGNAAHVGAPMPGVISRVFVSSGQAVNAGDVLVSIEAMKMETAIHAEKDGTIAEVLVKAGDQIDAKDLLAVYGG
Assay type: biochemical
Details: read-out: % inhibition at 20 mM

- inhibition at 20000 µM: 68%
Compound: NC(=O)C(=O)O [oxamate]
